The source of these data is patent US9334524B2, “Methods for improving and managing nucleoside reverse-transcriptase inhibition based treatment” (priority 2011, dated 2016).

Read-outs that look alike come from different tables or passages of the source.

For experiment [1], the system named is HIV-1 reverse transcriptase. The conditions noted are these: Strain A§§ (NT5C+, CNT2+), 200 μM, 72 hours.
Method: HIV RT activity was determined in both strains as described in U.S. Pat. No. 5,714,313 as follows. Both HIV1 RT expressing strains were grown in SD-ura+glucose to saturation. 1 DO of saturated culture (about 10^7 cells) was seeded in 1 ml SGal-ura and grew for 6 hrs. Glucose was then added to stop RT activation. After 12 hours, induced cells were seeded at 0.2 DO/ml in SD-His media and incubated for 72 hours.
In experiment [2] the test system is HIV-1 reverse transcriptase. The conditions noted are these: Strain A#§ (dCK+, CNT2+), 200 μM, 72 hours.
Method: HIV RT activity was determined in both strains as described in U.S. Pat. No. 5,714,313 as follows. Both HIV1 RT expressing strains were grown in SD-ura+glucose to saturation. 1 DO of saturated culture (about 10^7 cells) was seeded in 1 ml SGal-ura and grew for 6 hrs. Glucose was then added to stop RT activation. After 12 hours, induced cells were seeded at 0.2 DO/ml in SD-His media and incubated for 72 hours. Incubations were performed at 30° C. with shaking Inhibition of HIV-1 RT activity was determined by measuring the inhibition of growth in the presence 200 μM concentration of ABC (Abacavir) or TFV (Tenofovir) inhibitors, as shown in Table II.
Experiment [3] concerns HIV-1 reverse transcriptase. It is filed as cell-based. The conditions noted are these: for % Inhibition of HIV Reverse Transcriptase activity in yeast cells: Strain A (no dCK, no transporter), 200 μM, 72 hours incubation; for inhibition of cell growth, then reverse transcription (OD @ 600 nm): Strain A (not carrying dCK and OAT1), 100 μM, 72 hours, FIG. 1.
Experiment [4] relates to HIV-1 reverse transcriptase. The format is cell-based. The conditions noted are these: for % Inhibition of HIV Reverse Transcriptase activity in yeast cells: Strain A# (dCK+, CNT3+), 200 μM, 72 hours incubation; for inhibition of HIV RT enabled by expression of CNT3: transformed yeast cell expressing CNT3.
The subject of experiment [5] is HIV-1 reverse transcriptase. It is filed as cell-based. The conditions noted are these: for inhibition of cell growth, then reverse transcription (OD @ 600 nm): Strain A# (dCK in genome, OAT1 plasmid), 100 μM, 72 hours, FIG. 1; for inhibition of HIV RT enabled by expression of OAT1: transformed yeast cell expressing OAT1.
Experiment [6] concerns HIV-1 reverse transcriptase. The conditions noted are these: Strain B## (dCK+, OAT1+ in genome), 100 μM, 72 hours, FIG. 2.
From the text: S. cerevisiae strain B (Mat a, URA+, HIS−, LEU+) was transformed, using the standard Lithium Acetate protocol, with a previously linearized by StuI restriction enzyme p426GPDhdCK plasmid that contains the nucleic acid sequences coding for dCK and ura3, and where linearization occurred within the ura3 open reading frame. The new strain (Strain B#) where integration of dCK occurred at the ura3 locus has the following phenotype (Mat a, URA−, HIS−, LEU+, dCK+).
Strain B# was genetically modified by standard methods through transformation with a PCR amplified DNA fragment. This nucleic acid fragment contains the nucleic acid sequence coding for OAT1 transporter flanked by 5′ and 3′ non-coding regions of the leu2 locus. The new modified strain where dCK and OAT1 are integrated in the yeast genome, Strain B## (Mat a, URA−, HIS−, LEU−, dCK+, OAT1+), was transformed with the plasmid pHART21 described in U.S. Pat. No. 5,714,313. HIV-1 RT activity in Strain B## was determined as described in U.S. Pat. No. 5,714,313 after 72 hours incubation in the presence of 100 μM of either AZT, ddC, ddI or d4T.

For the molecule `Nc1nc(NC2CC2)c2ncn([C@H]3C=C[C@@H](CO)C3)c2n1` [ABC, Abacavir], the “% Inhibition of HIV-1 Reverse transcriptase in modified yeast cells” value in experiment [1] is 0%; in experiment [2], 87%.

`Cc1cn([C@H]2C[C@H](N=[N+]=[N-])[C@@H](CO)O2)c(=O)[nH]c1=O` [AZT, Zidovudine]: in experiment [3], the “% Inhibition of HIV Reverse Transcriptase activity in yeast cells” value (from here on “% Inhibition … in yeast cells”) amounted to 0% and the “inhibition of cell growth, then reverse transcription (OD @ 600 nm)” value (“inhibition of cell growth … (OD @ 600 nm)” for short) is “can not inhibit cell growth”. Also, in experiment [4], the “% Inhibition … in yeast cells” value worked out at 31% and the “inhibition of HIV RT enabled by expression of CNT3” value is recorded as “good inhibition”. Moreover, in experiment [5], the “inhibition of cell growth … (OD @ 600 nm)” value is on record as “inhibits cell growth” and the “inhibition of HIV RT enabled by expression of OAT1” value (from here on “inhibition … of OAT1”) is recorded as “good inhibition”. The “inhibition of cell growth (% inhibition), then reverse transcription, absorbance at 600 nm” value (from here on “inhibition of cell growth (% inhibition)”) in experiment [6] is on record as “inhibits cell growth”.

In the case of `CC(C)OC(=O)OCOP(=O)(CO[C@H](C)Cn1cnc2c(N)ncnc21)OCOC(=O)OC(C)C` [TFV, Tenofovir], the “% Inhibition of HIV-1 Reverse transcriptase in modified yeast cells” value in experiment [1] came to 0%; in experiment [2], 96%.

For `Cc1cn([C@H]2C=C[C@@H](CO)O2)c(=O)[nH]c1=O` [d4T, Stavudine], in experiment [3], the “% Inhibition … in yeast cells” value came out at 0% and the “inhibition of cell growth … (OD @ 600 nm)” value is given as “can not inhibit cell growth”. Besides, in experiment [4], the “% Inhibition … in yeast cells” value is recorded as 56% and the “inhibition of HIV RT enabled by expression of CNT3” value is listed as “good inhibition”. Moreover, in experiment [5], the “inhibition of cell growth … (OD @ 600 nm)” value is given as “inhibits cell growth” and the “inhibition … of OAT1” value is “good inhibition”. Besides, the “inhibition of cell growth (% inhibition)” value in experiment [6] is reported as “inhibits cell growth”.

Regarding `Nc1ccn([C@H]2CC[C@@H](CO)O2)c(=O)n1` [ddC, Zalcitabine], the “inhibition of cell growth … (OD @ 600 nm)” value in experiment [3] is recorded as “can not inhibit cell growth”; in experiment [5], “inhibits cell growth”. Besides, the “inhibition … of OAT1” value in experiment [5] was “good inhibition”. Moreover, in experiment [6], the “inhibition of cell growth (% inhibition)” value is “inhibits cell growth”.

With `O=c1[nH]cnc2c1ncn2[C@H]1CC[C@@H](CO)O1` [ddI, Didanosine], the “inhibition of cell growth … (OD @ 600 nm)” value in experiment [3] is given as “can not inhibit cell growth”. In experiment [5], the “inhibition of cell growth … (OD @ 600 nm)” value is reported as “inhibits cell growth” and the “inhibition … of OAT1” value was “good inhibition”. Also, in experiment [6], the “inhibition of cell growth (% inhibition)” value is given as “inhibits cell growth”.
